Experimental data published in patent US11377469B2, “CD73 inhibitors” (ORIC Pharmaceuticals, Inc., priority 2017, dated 2022).

Target: CD73 (Homo sapiens (Human), UniProt P21589)
Experiment: Biochemical Assay (CD73 inhibition, AMP hydrolysis, Malachite Green readout)
Settings: CD73 0.3208 nM, AMP 15 μM, Tris-HCl pH 7.4, Malachite Green absorbance

Sequence of CD73 (P21589 27-574): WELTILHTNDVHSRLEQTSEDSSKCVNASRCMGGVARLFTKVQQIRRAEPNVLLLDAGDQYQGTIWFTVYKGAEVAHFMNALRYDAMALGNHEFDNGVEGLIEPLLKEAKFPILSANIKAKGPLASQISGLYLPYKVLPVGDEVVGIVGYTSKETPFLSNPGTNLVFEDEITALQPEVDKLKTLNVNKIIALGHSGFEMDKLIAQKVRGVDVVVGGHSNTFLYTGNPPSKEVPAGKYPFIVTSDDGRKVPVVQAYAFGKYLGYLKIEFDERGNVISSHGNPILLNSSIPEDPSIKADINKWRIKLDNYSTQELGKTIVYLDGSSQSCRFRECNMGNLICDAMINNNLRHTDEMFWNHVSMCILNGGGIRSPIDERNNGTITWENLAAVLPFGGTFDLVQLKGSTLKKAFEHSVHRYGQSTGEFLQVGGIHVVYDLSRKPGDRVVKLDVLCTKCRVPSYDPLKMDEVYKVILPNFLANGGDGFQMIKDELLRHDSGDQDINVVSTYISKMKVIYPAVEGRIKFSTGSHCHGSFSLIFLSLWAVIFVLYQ

Row | IC50 [µM] | Compound
1 | ≤ 0.5 | O=P(O)(O)COC[C@H]1O[C@@H](n2nnc3c(NCC4CC4)nc(Cl)nc32)[C@H](O)[C@@H]1O [Example 16, ((((2R,3S,4R,5R)-5-(5-Chloro-7-((cyclopropylmethyl)amino)-3H-[1,2,3]triazolo[4,5-d]pyrimidin-3-yl)-3,4-dihydroxytetrahydrofuran-2-yl)methoxy)methyl)phosphonic acid]
2 | ≤ 0.5 | O=P(O)(O)COC[C@H]1O[C@@H](n2ncc3c(NCC4CC(F)(F)C4)nc(Cl)nc32)[C@H](O)[C@@H]1O [Example 86]
3 | ≤ 0.5 | CN(Cc1cccc(Cl)c1)c1nc(Cl)nc2c1nnn2[C@@H]1O[C@H](COCP(=O)(O)O)[C@@H](O)[C@H]1O [Example 39, ((((2R,3S,4R,5R)-5-(5-chloro-7-((3-chlorobenzyl)(methyl)amino)-3H-[1,2,3]triazolo[4,5-d]pyrimidin-3-yl)-3,4-dihydroxytetrahydrofuran-2-yl)methoxy)methyl)phosphonic acid]
4 | ≤ 0.5 | O=P(O)(O)CS(=O)(=O)C[C@H]1O[C@@H](n2nnc3c(NC4CCCC4)nc(Cl)nc32)[C@H](O)[C@@H]1O [Example 108, (((((2S,3S,4R,5R)-5-(5-chloro-7-(cyclopentylamino)-3H-[1,2,3]triazolo[4,5-d]pyrimidin-3-yl)-3,4-dihydroxytetrahydrofuran-2-yl)methyl)sulfonyl)methyl)phosphonic acid]
5 | > 1 | O=C(CP(=O)(O)O)NC[C@H]1O[C@@H](n2ncc3c(NCc4ccccc4Cl)nc(Cl)nc32)[C@H](O)[C@@H]1O [Example 2, (2-((((2R,3S,4R,5R)-5-(6-Chloro-4-((2-chlorobenzyl)amino)-1H-pyrazolo[3,4-d]pyrimidin-1-yl)-3,4-dihydroxytetrahydrofuran-2-yl)methyl)amino)-2-oxoethyl)phosphonic acid]
6 | ≤ 0.5 | C[C@H]1CCC[C@H]1Nc1nc(Cl)nc2c1cnn2[C@@H]1O[C@H](COCP(=O)(O)O)[C@@H](O)[C@H]1O [Example 105, ((((2R,3S,4R,5R)-5-(6-chloro-4-(((1R,2S)-2-methylcyclopentyl)amino)-1H-pyrazolo[3,4-d]pyrimidin-1-yl)-3,4-dihydroxytetrahydrofuran-2-yl)methoxy)methyl)phosphonic acid]
7 | 0.5 to 1 | CN(Cc1ccccc1Cl)c1nc(Cl)nc2c1cnn2[C@@H]1O[C@H](COCP(=O)(O)O)[C@@H](O)[C@H]1O [Example 64, ((((2R,3S,4R,5R)-5-(6-chloro-4-((2-chlorobenzyl)(methyl)amino)-1H-pyrazolo[3,4-d]pyrimidin-1-yl)-3,4-dihydroxytetrahydrofuran-2-yl)methoxy)methyl)phosphonic acid]
8 | ≤ 0.5 | O=P(O)(O)COC[C@H]1O[C@@H](n2ncc3c(NCC4CCC4)nc(Cl)nc32)[C@H](O)[C@@H]1O [Example 68, ((((2R,3S,4R,5R)-5-(6-chloro-4-((cyclobutylmethyl)amino)-1H-pyrazolo[3,4-d]pyrimidin-1-yl)-3,4-dihydroxytetrahydrofuran-2-yl)methoxy)methyl)phosphonic acid]
9 | ≤ 0.5 | C[C@@H](Nc1nc(Cl)nc2c1cnn2[C@@H]1O[C@H](COCP(=O)(O)O)[C@@H](O)[C@H]1O)C1CC1 [Example 92, ((((2R,3S,4R,5R)-5-(6-chloro-4-(((R)-1-cyclopropylethyl)amino)-1H-pyrazolo[3,4-d]pyrimidin-1-yl)-3,4-dihydroxytetrahydrofuran-2-yl)methoxy)methyl)phosphonic acid]
10 | ≤ 0.5 | O=P(O)(O)CS(=O)(=O)C[C@H]1O[C@@H](n2ncc3c(NCc4cccc(Cl)c4)nc(Cl)nc32)[C@H](O)[C@@H]1O [Example 61, (((((2S,3S,4R,5R)-5-(6-chloro-4-((3-chlorobenzyl)amino)-1H-pyrazolo[3,4-d]pyrimidin-1-yl)-3,4-dihydroxytetrahydrofuran-2-yl)methyl)sulfonyl)methyl)phosphonic acid]
11 | ≤ 0.5 | C[C@H](Nc1nc(Cl)nc2c1cnn2[C@@H]1O[C@H](CS(=O)(=O)CP(=O)(O)O)[C@@H](O)[C@H]1O)c1ccc(F)cc1 [Example 116, (((((2S,3S,4R,5R)-5-(6-chloro-4-(((S)-1-(4-fluorophenyl)ethyl)amino)-1H-pyrazolo[3,4-d]pyrimidin-1-yl)-3,4-dihydroxytetrahydrofuran-2-yl)methyl)sulfonyl)methyl)phosphonic acid]
12 | ≤ 0.5 | O=P(O)(O)COC[C@H]1O[C@@H](n2ncc3c(N[C@H]4CCc5ccccc54)nc(Cl)nc32)[C@H](O)[C@@H]1O [Example 25, ((((2R,3S,4R,5R)-5-(6-chloro-4-(((S)-2,3-dihydro-1H-inden-1-yl)amino)-1H-pyrazolo[3,4-d]pyrimidin-1-yl)-3,4-dihydroxytetrahydrofuran-2-yl)methoxy)methyl)phosphonic acid]
13 | ≤ 0.5 | CN(c1nc(Cl)nc2c1cnn2[C@@H]1O[C@H](COCP(=O)(O)O)[C@@H](O)[C@H]1O)C1CCCC1 [Example 53, ((((2R,3S,4R,5R)-5-(6-chloro-4-(cyclopentyl(methyl)amino)-1H-pyrazolo[3,4-d]pyrimidin-1-yl)-3,4-dihydroxytetrahydrofuran-2-yl)methoxy)methyl)phosphonic acid]
14 | 0.5 to 1 | CN(C[C@H]1O[C@@H](n2nnc3c(NC4CCCC4)nc(Cl)nc32)[C@H](O)[C@@H]1O)C(=O)CP(=O)(O)O [Example 115, (2-((((2R,3S,4R,5R)-5-(5-chloro-7-(cyclopentylamino)-3H-[1,2,3]triazolo[4,5-d]pyrimidin-3-yl)-3,4-dihydroxytetrahydrofuran-2-yl)methyl)(methyl)amino)-2-oxoethyl)phosphonic acid]
15 | ≤ 0.5 | O=P(O)(O)COC[C@H]1O[C@@H](n2ncc3c(NC[C@@H]4CCCO4)nc(Cl)nc32)[C@H](O)[C@@H]1O [Example 69, ((((2R,3S,4R,5R)-5-(6-chloro-4-((((S)-tetrahydrofuran-2-yl)methyl)amino)-1H-pyrazolo[3,4-d]pyrimidin-1-yl)-3,4-dihydroxytetrahydrofuran-2-yl)methoxy)methyl)phosphonic acid]
16 | ≤ 0.5 | C[C@@H]1CCC[C@@H]1Nc1nc(Cl)nc2c1cnn2[C@@H]1O[C@H](COCP(=O)(O)O)[C@@H](O)[C@H]1O [Example 104, ((((2R,3S,4R,5R)-5-(6-chloro-4-(((1S,2R)-2-methylcyclopentyl)amino)-1H-pyrazolo[3,4-d]pyrimidin-1-yl)-3,4-dihydroxytetrahydrofuran-2-yl)methoxy)methyl)phosphonic acid]
17 | ≤ 0.5 | CCC(CC)Nc1nc(Cl)nc2c1cnn2[C@@H]1O[C@H](COCP(=O)(O)O)[C@@H](O)[C@H]1O [Example 78, ((((2R,3S,4R,5R)-5-(6-chloro-4-(pentan-3-ylamino)-1H-pyrazolo[3,4-d]pyrimidin-1-yl)-3,4-dihydroxytetrahydrofuran-2-yl)methoxy)methyl)phosphonic acid]
18 | > 1 | CN(c1nc(Cl)nc2c1cnn2[C@@H]1O[C@H](CCP(=O)(O)O)[C@@H](O)[C@H]1O)[C@H]1CCc2ccccc21 [Example 4, (2-((2R,3S,4R,5R)-5-(6-Chloro-4-(((S)-2,3-dihydro-1H-inden-1-yl)(methyl)amino)-1H-pyrazolo[3,4-d]pyrimidin-1-yl)-3,4-dihydroxytetrahydrofuran-2-yl)ethyl)phosphonic acid]
19 | ≤ 0.5 | O=P(O)(O)COC[C@H]1O[C@@H](n2ncc3c(NCC4CCCC4)nc(Cl)nc32)[C@H](O)[C@@H]1O [Example 124, ((((2R,3S,4R,5R)-5-(6-chloro-4-((cyclopentylmethyl)amino)-1H-pyrazolo[3,4-d]pyrimidin-1-yl)-3,4-dihydroxytetrahydrofuran-2-yl)methoxy)methyl)phosphonic acid]
20 | > 1 | CN(c1nc(Cl)nc2c1nnn2[C@@H]1O[C@H](COC(=O)CP(=O)(O)O)[C@@H](O)[C@H]1O)[C@H]1CCc2ccccc21 [Example 11, (2-(((2R,3S,4R,5R)-5-(5-chloro-7-(((S)-2,3-dihydro-1H-inden-1-yl)(methyl)amino)-3H-[1,2,3]triazolo[4,5-d]pyrimidin-3-yl)-3,4-dihydroxytetrahydrofuran-2-yl)methoxy)-2-oxoethyl)phosphonic acid]
21 | ≤ 0.5 | O=P(O)(O)COC[C@H]1O[C@@H](n2ccc3c(NCc4ccccc4Cl)nc(Cl)nc32)[C@H](O)[C@@H]1O [Example 40, ((((2R,3S,4R,5R)-5-(2-chloro-4-((2-chlorobenzyl)amino)-7H-pyrrolo[2,3-d]pyrimidin-7-yl)-3,4-dihydroxytetrahydrofuran-2-yl)methoxy)methyl)phosphonic acid]
22 | ≤ 0.5 | O=P(O)(O)CS(=O)(=O)C[C@H]1O[C@@H](n2ncc3c(NCC4CC4)nc(Cl)nc32)[C@H](O)[C@@H]1O [Example 62]
23 | ≤ 0.5 | CC1(C)CCC[C@H]1Nc1nc(Cl)nc2c1cnn2[C@@H]1O[C@H](COCP(=O)(O)O)[C@@H](O)[C@H]1O [Example 103, ((((2R,3S,4R,5R)-5-(6-chloro-4-(((R)-2,2-dimethylcyclopentyl)amino)-1H-pyrazolo[3,4-d]pyrimidin-1-yl)-3,4-dihydroxytetrahydrofuran-2-yl)methoxy)methyl)phosphonic acid]
24 | ≤ 0.5 | CCNc1nc(Cl)nc2c1cnn2[C@@H]1O[C@H](COCP(=O)(O)O)[C@@H](O)[C@H]1O [Example 43, ((((2R,3S,4R,5R)-5-(6-chloro-4-(ethylamino)-1H-pyrazolo[3,4-d]pyrimidin-1-yl)-3,4-dihydroxytetrahydrofuran-2-yl)methoxy)methyl)phosphonic acid]
25 | ≤ 0.5 | N#Cc1nc(NCc2cccc(Cl)c2)c2cnn([C@@H]3O[C@H](COCP(=O)(O)O)[C@@H](O)[C@H]3O)c2n1 [Example 18, ((((2R,3S,4R,5R)-5-(4-((3-Chlorobenzyl)amino)-6-cyano-1H-pyrazolo[3,4-d]pyrimidin-1-yl)-3,4-dihydroxytetrahydrofuran-2-yl)methoxy)methyl)phosphonic acid]

Row | Compound | IC50 [µM]
26 | CC(C)COc1nc(NCc2cccc(Cl)c2)c2cnn([C@@H]3O[C@H](COCP(=O)(O)O)[C@@H](O)[C@H]3O)c2n1 [Example 54, ((((2R,3S,4R,5R)-5-(4-((3-chlorobenzyl)amino)-6-isobutoxy-1H-pyrazolo[3,4-d]pyrimidin-1-yl)-3,4-dihydroxytetrahydrofuran-2-yl)methoxy)methyl)phosphonic acid] | > 1
